Test: Surgical Bioavailability Assay
Type: in vivo, porcine model
Conditions: neat active agent powder placed via surgical incision, compared to a control oral dosage form
Excerpt: “Surgical Bioavailability Assay” as used herein refers to an assay used to determine bioavailability of an active agent using a surgical testing method. In the Surgical Bioavailability Assay, a porcine model is also used, in which the animals undergo open surgery such that oral dosage forms to be tested can be placed at regions of the intestine of interest, such as the jejunum and ileum. After administration of anesthesia, a ventral midline incision is made to gain access to the animal's abdominal cavity. The jejunum and ileum are exposed, and incisions are made to manually place the oral dosage forms being tested. After oral dosage form placement is complete, the intestinal incisions are closed, and the midline incision can also be temporarily closed. Also, access can be made for blood collection via the carotid artery or jugular vein. […] The percent bioavailability of the active agent provided with the oral dosage form is determined on the basis of the active agent levels detected in these blood samples.
Surgical Bioavailability Assay. […] The percent bioavailability of the active agent provided with the oral dosage form is determined on the basis of the active agent levels detected in these blood samples.

| Molecule | bioavailability (FIG. 4) |
| --- | --- |
| C[C@@H](O)[C@@H]1NC(=O)[C@H](CCCCN)NC(=O)[C@@H](Cc2c[nH]c3ccccc23)NC(=O)[C@H](Cc2ccccc2)NC(=O)[C@@H](NC(=O)[C@H](N)Cc2ccccc2)CSSC[C@@H](C(=O)N[C@H](CO)[C@@H](C)O)NC1=O [octreotide] | good bioavailability |
| calcitonin | good bioavailability |

— patent US20200030242A1, “ORAL DOSAGE FORM WITH DRYING AGENT FOR DELIVERY OF ACTIVE AGENT” (Entrega Inc., priority 2016, published 2020)
